In brackets after ≈: the same amount, converted by molar mass. Read-outs that look alike come from different tables or passages of the source.
Experiments:
S. typhimurium TA1535 = assay: Bacterial reverse mutation (BRM) test; assay type: cell-based; settings: S9 mix +; positive control 2AA 2 μg/plate
Method: (§1) The BRM test was performed in accordance with OECD Guideline 471 using Salmonella tyiphimurium TA98, TA100, TA1535, and TA1537, and Escherichia coli WP2 uvrA [11]. Each bacterial strain was pre-cultured at 37 °C for 18 h using a nutrient broth (Nissui Pharmaceutical; http://www.nissui-pharm.co.jp/index_e.html). After adjustment to 2.4 at OD660 nm, each bacterial suspension was added to a test tube containing the designated compound in the absence or presence of rat liver microsome (S9) mix. After a 20-min incubation at 37 °C, top agar was added to each test tube and the contents were poured into minimum essential medium (Oriental Yeast; http://www.oyc.co.jp/e/index.htm). The number of revertants was counted 48 h after incubation at 37 °C.

S. typhimurium TA100 = assay: Bacterial reverse mutation (BRM) test; assay type: cell-based
Method: as §1

E. coli WP2 uvr A = assay: Bacterial reverse mutation (BRM) test; assay type: cell-based
Method: as §1

S. typhimurium TA1537 = assay: Bacterial reverse mutation (BRM) test; assay type: cell-based
Method: as §1

S. typhimurium TA98 = assay: Bacterial reverse mutation (BRM) test; assay type: cell-based
Method: as §1

CYP1A1/2 = assay: 7-Ethoxyresorufin O-deethylation in human liver microsomes; assay type: in vitro ADME; settings: 100 μM; 0.5 μM 7-ethoxyresorufin
[1] = system: M. tuberculosis ATCC 35822 (H37Rv-H-R); assay: microbe, parasite or virus in culture; assay type: cell-based; settings: Mycobacterium tuberculosis, 336 h
[2] = system: M. tuberculosis ATCC 35838 (H37Rv-R-R); assay: microbe, parasite or virus in culture; assay type: cell-based; settings: Mycobacterium tuberculosis, 336 h
[3] = system: M. tuberculosis ATCC 35837 (H37Rv-E-R); assay: microbe, parasite or virus in culture; assay type: cell-based; settings: Mycobacterium tuberculosis, 336 h
[4] = system: M. tuberculosis ATCC 35812 (Kurono); assay: Susceptibility testing (agar dilution MIC); assay type: cell-based; settings: Mycobacterium tuberculosis, ATCC35812, 336 h
[5] = system: M. tuberculosis ATCC 35820 (H37Rv-S-R); assay: microbe, parasite or virus in culture; assay type: cell-based; settings: Mycobacterium tuberculosis, 336 h
[6] = system: M. tuberculosis ATCC 25618 (H37Rv); assay: Susceptibility testing (agar dilution MIC); assay type: cell-based; settings: Mycobacterium tuberculosis, 336 h
[7] = system: clinically isolated M. tuberculosis; assay: microbe, parasite or virus in culture; assay type: cell-based; settings: Mycobacterium tuberculosis; read-out: MIC90
[8] = Plasma levels in an experimental mouse model of TB; settings: in vivo, po
M. tuberculosis Kurono = assay: Therapeutic efficacy in an experimental mouse model of chronic TB; assay type: in vivo, ICR mice; settings: for Log of Viable Counts/Lung: 672 h; for Dose that could produce a CFU reduction of at least 95%: lung; for Dose that could produce a CFU reduction of at least 95% / Dose groups that showed a significant decrease in pulmonary viable bacterial count when compared with the vehicle control group: once daily for 28 d
[9] = system: intracellular M. tuberculosis H37Rv in THP-1 cells; assay: Activity against intracellular mycobacteria, 4-h pulsed exposure; assay type: cell-based, M. tuberculosis; human THP-1 cells; settings: further 68-h culture
[10] = system: mycolic acid synthesis in M. bovis BCG; assay: microbe, parasite or virus in culture; assay type: cell-based; settings: Mycobacterium tuberculosis variant bovis BCG, BCG
[11] = S9 mix −, positive control AF-2 0.01 μg/plate
[12] = 7H11 agar, 37 °C, 14 d, read-out: MIC

Compound: Nc1ccc2cc3ccccc3cc2c1 [2AA, 2-aminoanthracene]
- Revertants/Plate (S. typhimurium TA1535): 6 188 Revertants/Plate
- Revertants/Plate (S. typhimurium TA100; S9 mix +, positive control 2AA 1 μg/plate): 108 1103 Revertants/Plate
- Revertants/Plate (E. coli WP2 uvr A; S9 mix +, positive control 2AA 10 μg/plate): 33 1122 Revertants/Plate
- Revertants/Plate (S. typhimurium TA1537; S9 mix +, positive control 2AA 2 μg/plate): 81 238 Revertants/Plate
- Revertants/Plate (S. typhimurium TA98; S9 mix +, positive control 2AA 0.5 μg/plate): 36 92 Revertants/Plate

Compound: O=c1cc(-c2ccccc2)oc2c1ccc1ccccc12 [7,8-Benzoflavone, 7,8-benzoflavone]
- Percent of Control (CYP1A1/2): 3.8% of Control

Compound: Nc1c2ccccc2nc2ccccc12 [ACR, 9-aminoacridine]
- Revertants/Plate (S. typhimurium TA1537; S9 mix −, positive control ACR 80 μg/plate): 64 953 Revertants/Plate

Compound: NC(=O)C(=Cc1ccc([N+](=O)[O-])o1)c1ccco1 [AF-2, 2-(2-furyl)-3-(5-nitro-2-furyl)acrylamide]
- Revertants/Plate (S. typhimurium TA100; [11]): 98 547 Revertants/Plate
- Revertants/Plate (E. coli WP2 uvr A; [11]): 30 225 Revertants/Plate
- Revertants/Plate (S. typhimurium TA98; S9 mix −, positive control AF-2 0.1 μg/plate): 29 473 Revertants/Plate

Compound: CCC1Cn2cc([N+](=O)[O-])nc2O1 (stereo not shown) [CGI-17341]
- MIC [1]: 0.2 µg/mL (≈ 1.09 µM)
- MIC [2]: 0.05 µg/mL (≈ 0.273 µM)
- MIC [3]: 0.2 µg/mL (≈ 1.09 µM)
- MIC [4, 12]: 0.2 µg/mL (≈ 1.09 µM)
- MIC [5]: 0.2 µg/mL (≈ 1.09 µM)
- MIC [6, 12]: 0.2 µg/mL (≈ 1.09 µM)

Compound: CC[C@@H](CO)NCCN[C@@H](CC)CO [EB, ethambutol]
- MIC [1]: 3.13 µg/mL (≈ 15.3 µM)
- MIC90 [7]: 3.64 µg/mL (≈ 17.8 µM)
- AUC(0-t) [8]: 12200 ng·h/mL
- concentration at 0.083 h [8]: 55 ± 49 ng/mL
- concentration at 0.25 h [8]: 1300 ± 939 ng/mL
- concentration at 0.5 h [8]: 3170 ± 392 ng/mL
- concentration at 1 h [8]: 3510 ± 1130 ng/mL
- concentration at 2 h [8]: 2510 ± 1010 ng/mL
- concentration at 4 h [8]: 1020 ± 202 ng/mL
- AUC(0-t) ([8]; 100 mg/kg): 12100 ng·h/mL
- Cmax ([8]; 100 mg/kg): 3510 ng/mL
- Tmax ([8]; 100 mg/kg): 1 h
- half-life ([8]; 100 mg/kg): 2.8 h
- MIC [2]: 1.56 µg/mL (≈ 7.64 µM)
- MIC [3]: 50 µg/mL (≈ 245 µM)
- Log of Viable Counts/Lung (M. tuberculosis Kurono; 20 mg/kg): 6.923 ± 0.721^a:NS, b:NS
- Log of Viable Counts/Lung (M. tuberculosis Kurono; 40 mg/kg): 6.696 ± 0.382^a:NS, b:NS
- Log of Viable Counts/Lung (M. tuberculosis Kurono; 80 mg/kg): 6.429 ± 0.475^a:NS, b:NS
- Log of Viable Counts/Lung (M. tuberculosis Kurono; 160 mg/kg): 5.642 ± 0.120^a:**, b:**
- Dose that could produce a CFU reduction of at least 95% (M. tuberculosis Kurono): > 160 mg/kg
- Dose groups that showed a significant decrease in pulmonary viable bacterial count when compared with the vehicle control group (M. tuberculosis Kurono): 160 mg/kg
- MIC [4]: 3.13 µg/mL (≈ 15.3 µM)
- MIC [5]: 3.13 µg/mL (≈ 15.3 µM)
- MIC [6]: 1.56 µg/mL (≈ 7.64 µM)

Compound: Cc1nc2c([nH]1)c(=O)n(C)c(=O)n2Cc1ccco1 [Furafylline, furafylline]
- Percent of Control (CYP1A1/2): 32.3% of Control

Compound: NNC(=O)c1ccncc1 [INH, isoniazid]
- MIC [1]: > 100 µg/mL
- MIC90 [7]: 0.099 µg/mL (≈ 0.722 µM)
- concentration at 0.083 h [8]: 2170 ± 435 ng/mL
- concentration at 0.25 h [8]: 3060 ± 779 ng/mL
- concentration at 0.5 h [8]: 2280 ± 390 ng/mL
- concentration at 1 h [8]: 1920 ± 478 ng/mL
- concentration at 2 h [8]: 740 ± 202 ng/mL
- concentration at 4 h [8]: 253 ± 57 ng/mL
- AUC(0-t) ([8]; 10 mg/kg): 4550 ng·h/mL
- Cmax ([8]; 10 mg/kg): 3060 ng/mL
- Tmax ([8]; 10 mg/kg): 0.25 h
- MIC [2]: 0.1 µg/mL (≈ 0.729 µM)
- MIC [3]: 0.2 µg/mL (≈ 1.46 µM)
- Log of Viable Counts/Lung (M. tuberculosis Kurono; 1.25 mg/kg): 6.702 ± 0.237^c:NS, d:NS
- Log of Viable Counts/Lung (M. tuberculosis Kurono; 2.5 mg/kg): 5.751 ± 0.358^c:**, d:*
- Log of Viable Counts/Lung (M. tuberculosis Kurono; 5 mg/kg): 4.944 ± 0.760^c:**, d:**
- Log of Viable Counts/Lung (M. tuberculosis Kurono; 10 mg/kg): 4.434 ± 0.319^c:**, d:**
- Log of Viable Counts/Lung (M. tuberculosis Kurono; 20 mg/kg): 4.595 ± 0.452^c:**, d:**
- Dose that could produce a CFU reduction of at least 95% (M. tuberculosis Kurono): 5 mg/kg
- Dose groups that showed a significant decrease in pulmonary viable bacterial count when compared with the vehicle control group (M. tuberculosis Kurono): 2.5, 5, 10, and 20 mg/kg
- Activity against intracellular M. tuberculosis H37Rv [9]: poor activity
- MIC [4]: 0.1 µg/mL (≈ 0.729 µM)
- MIC [5]: 0.1 µg/mL (≈ 0.729 µM)
- IC50 ([10]; 1 h, read-out: IC50, Fatty acid): > 4 µg/mL
- IC50 ([10]; 1 h, read-out: IC50, Keto-mycolic acid): 0.69 µg/mL (≈ 5.03 µM)
- IC50 ([10]; 1 h, read-out: IC50, Methoxy-mycolic acid): 0.63 µg/mL (≈ 4.59 µM)
- IC50 ([10]; 1 h, read-out: IC50, α-Mycolic acid): 1.85 µg/mL (≈ 13.5 µM)
- IC50 ([10]; read-out: IC50 values, all mycolic acid subclasses): 0.63 to 1.85 µg/mL (≈ 4.59 to 13.5 µM)
- MIC [6]: 0.1 µg/mL (≈ 0.729 µM)

— publication PMC1664607 (PLoS Medicine, 2006)
